Patent publication US6821774B1, “Compositions and methods for increasing cholesterol efflux and raising HDL using ATP binding cassette transporter ABC1” (CV Therapeutics, Inc., priority 1999, dated 2004)

What was measured:
[1] = molecular target: ABC1 (Mus musculus, UniProt P41233); conditions: Becq et al. 1997; Hamon et al. 1997; cited from earlier work
[2] = system: normal fibroblasts; assay: Apo A-I-mediated cholesterol efflux from normal fibroblasts in the presence of ABC1 transport inhibitors; type: cell-based, human; conditions: 6 hours; 5 μg/ml apo A-I; 0, 0.2 mM or 0.4 mM inhibitor
Method: To test whether inhibition of ABC1 could affect the process of apolipoprotein-mediated cholesterol efflux, two compounds reported to be ABC1 inhibitors were tested in assays which monitor apolipoprotein mediated cholesterol efflux. […] The apolipoprotein-mediated cholesterol efflux assays were performed as described in Example 1 with the noted changes. Cholesterol-loaded and [^3H]cholesterol-labeled normal fibroblasts (n=3) were incubated for 6 hours with or without 5 μg/ml apo A-1 and either 0, 0.2 mM, or 0.4 mM DIDS. In addition, cholesterol-loaded and [^3H]cholesterol-labeled normal fibroblasts (n=3) were incubated for 6 hours with or without 5 μg/ml apo A-I and either 0, 0.2 mM, or 0.4 mM BSP. […] The results are shown in FIG. 5 as the mean±SD (n=3) of efflux in the presence of apo A-I after subtraction of values for apo A-I-free medium. […] The results of these tests mimic the efflux defect in fibroblasts derived from patients with TD, described in Example 1.

[3] = system: ABC1 mRNA; assay: ABC1 mRNA expression by RT-PCR in normal fibroblasts; type: cell-based, human
Method: (§1) To determine whether ABC1 plays a rate-limiting role in cellular sterol efflux, the synthesis of ABC1 was measured under various cellular conditions related to cholesterol efflux processes. Specifically, normal fibroblasts and TD fibroblasts were individually exposed to conditions of excess cAMP, cholesterol, or Apo A-I. Cell cultures of normal skin fibroblasts and TD1 and TD2 fibroblasts were prepared as described in Example 1. The level of ABC1 mRNA was measured by RT-PCR. Cell cultures: Immortalized cell cultures of normal skin fibroblasts and TD1 and TD2 fibroblasts were prepared as described in Example 1. Cells were grown to subconfluence in DMEM/10% FBS before replacement with DMEM/BSA and the indicated additive for 24 or 48 hours. RNA was prepared as described in Example 2. RT-PCR: Quantitative PCR was carried out using the GeneAmp 5700 Sequence Detection System (Perkin-Elmer Applied Biosystems, Foster City, Calif.). Briefly, 500 ng of DNase-treated mRNA was reverse transcribed using random hexamer primers at 2.5 μM. Approximately 5% of this reaction was amplified by PCR using the SYBR green core kit (PE Applied Biosystems, Foster City, Calif.; Cat. #4304886) and human ABC1 primers […] […] The mRNA in each sample was quantitated by detecting the increase in fluorescence caused by SYBR green binding to the double-stranded amplification product generated during each PCR cycle. […]

[4] = system: ABC1 protein; assay: Cell-surface labeling and immunoprecipitation of ABC1 protein in normal and TD1 fibroblasts; type: cell-based, human; conditions: serum deprivation and cholesterol-loading (30 μg/ml, 48 hours), normal and TD1 cells
Method: Cell-surface labeling and immunoprecipitation was used to determine whether increased expression of ABC1 protein in the plasma membrane is correlated with an increase in cholesterol efflux (FIG. 10). The relative amount of ABC1 on the cell surface was determined by cross-linking surface proteins on intact cells with the membrane-impermeable agent sulfo-NHS-biotin, followed by the steps of membrane solubilization, immunoprecipitation with ABC1 antibody, SDS-PAGE, and detection with streptavidin.
Both normal and TD1 cells were cultured under control conditions and conditions known to increase apolipoprotein-mediated cholesterol efflux (Oram, et al., J. Lip. Res., 40: 1769-1781 (1999)). […] Cholesterol-loaded cells were grown to confluence in DMEM/10% FBS and then incubated in DMEM/BSA for 48 hours with 30 μg/ml cholesterol plus 18 hours with no additives (cholesterol). […]
Detection of ABC1 Protein: The eluted biotinylated proteins were subjected to SDS-PAGE (6% gel; 150V, 5 hours) and transferred to nitrocellulose membrane (200 mA, 18 hours). The nitrocellulose was probed with streptavidin-horse radish peroxidase (Amersham Pharmacia, Piscataway, N.J.; Cat. #RPN 1231) diluted 300-fold and detected by enhanced chemiluminescence labeling (ECL) according to vendor's protocol (Amersham Pharmacia, Piscataway, N.J.). […]

[5] = system: RAW 264.7 cells; assay: Apo A-I-mediated cholesterol efflux assay in cholesterol-loaded RAW 264.7 macrophage cells; type: cell-based, mouse; conditions: apo A-I (20 μg/ml) and rolipram 50 μM
[6] = system: ABC1 mRNA; assay: Apo A-I-mediated cholesterol efflux from normal skin fibroblasts loaded with antisense oligonucleotide; type: cell-based, human; conditions: 30 μM oligonucleotide; apo A-I-mediated efflux after 12 hours
Method: Normal skin fibroblasts were labeled with [^3H]cholesterol as described in Example 1. The cells were then loaded with oligonucleotide by scraping in the presence of either 30 μM control Morpholino oligonucleotide (5′-[…]-3′ corresponding to the antisense complement of a β-globin thalassemic mRNA; SEQ ID NO: 52) or 30 μM ABC1 antisense Morpholino oligonucleotide (5′-[…]-3′; SEQ ID NO: 53) and reseeding on new dishes. Control cells were mock-loaded after [^3H]cholesterol-labeling by scraping and reseeding in the absence of oligonucleotide. […] The results are shown in FIG. 6 as the mean±SEM of three separate experiments, normalized to the value for apo A-I-specific efflux in the absence of oligonucleotide in each experiment.

[7] = system: ABC1 mRNA; assay: ABC1 mRNA expression by RT-PCR in Tangier disease (TD1, TD2) fibroblasts; type: cell-based, human; conditions: 10 μg/ml apo A-I
Method: as §1

[8] = system: RAW 264.7 cells; assay: Apo A-I-mediated cholesterol efflux assay in cholesterol-loaded RAW 264.7 macrophage cells; type: cell-based, mouse
Method: To determine whether ligands for nuclear receptors affect the process of apolipoprotein-mediated cholesterol efflux, various ligands were tested using the apo A-I-mediated cholesterol efflux assay described in Example 12. The nuclear receptor superfamily includes several members, such as the liver receptor LXR, the retinoid receptor RXR, and the peroxisome proliferator-activated receptor PPAR, which have been implicated in lipid metabolism (Russell. D. W., Cell, 97:539-542 (1999); Spiegelman, B. W., Cell, 93:153-155 (1998); Janowski et al., Nature, 383:728-731 (1996)). […] Using the above-described assay, 9 cis-retinoic acid (RXR ligand), oxysterol (LXR ligand), and fenfibrate (PPAR ligand) was tested to determine the effect on cholesterol efflux.
To determine whether eicosanoids affect the process of apolipoprotein-mediated cholesterol efflux, PGE1 and PG12 were tested using the apo A-I-mediated cholesterol efflux assay described in Example 12.

[9] = system: normal fibroblasts; assay: Cholesterol efflux from cholesterol-laden normal fibroblasts; type: cell-based, human; conditions: albumin plus apo A-I 10 μg/ml; up to 48 hours
Method: (§2) Cell Cultures: Human fibroblasts were obtained from skin explants from two normal subjects (NL1) and three unrelated patients with Tangier disease ([…]). TD1 cells were obtained from a person with extremely low plasma HDL cholesterol and apo A-I levels and clinical symptoms typical of Tangier disease. […] TD3 cells were obtained from a person with Tangier disease who presented with orange tonsil remnants, asymmetrical motor neuropathy, plasma HDL cholesterol of 5 mg/dL, and LDL cholesterol of 16 mg/dL (Lawn et at., J. Clin. Invest., 104, R25-R31 (1999)). The normal cells and TD subject cells were immortalized as described in Oram et al., J. Lipid Res., 40: 1769-1781 (1999). Briefly, the cells were transfected with amphotropic retroviruses containing vectors with inserts of human papillomavirus 16 oncogenes E6 and E7 and a neomycin resistance selectable marker. Control cells were infected with vector alone (mock-infected). Pooled cell populations were selected in the presence of G418 for two passages, after which G418 was excluded from the medium. Fibroblasts were used between the fifth and sixteenth passage (primary) or sixth and fourteenth passage (immortalized). The immortalized normal and TD cells were seeded into 16-mm wells or 35-mm dishes and grown to confluence in Dulbecco's modified Eagle's medium (DMEM) plus 10% fetal bovine serum (FBS) before experimental use. […]

[10] = system: TD fibroblasts; assay: Cholesterol efflux from cholesterol-laden Tangier disease fibroblasts; type: cell-based, human; conditions: albumin plus apo A-I 10 μg/ml
Method: as §2

Sequence of ABC1 (P41233 whole entry): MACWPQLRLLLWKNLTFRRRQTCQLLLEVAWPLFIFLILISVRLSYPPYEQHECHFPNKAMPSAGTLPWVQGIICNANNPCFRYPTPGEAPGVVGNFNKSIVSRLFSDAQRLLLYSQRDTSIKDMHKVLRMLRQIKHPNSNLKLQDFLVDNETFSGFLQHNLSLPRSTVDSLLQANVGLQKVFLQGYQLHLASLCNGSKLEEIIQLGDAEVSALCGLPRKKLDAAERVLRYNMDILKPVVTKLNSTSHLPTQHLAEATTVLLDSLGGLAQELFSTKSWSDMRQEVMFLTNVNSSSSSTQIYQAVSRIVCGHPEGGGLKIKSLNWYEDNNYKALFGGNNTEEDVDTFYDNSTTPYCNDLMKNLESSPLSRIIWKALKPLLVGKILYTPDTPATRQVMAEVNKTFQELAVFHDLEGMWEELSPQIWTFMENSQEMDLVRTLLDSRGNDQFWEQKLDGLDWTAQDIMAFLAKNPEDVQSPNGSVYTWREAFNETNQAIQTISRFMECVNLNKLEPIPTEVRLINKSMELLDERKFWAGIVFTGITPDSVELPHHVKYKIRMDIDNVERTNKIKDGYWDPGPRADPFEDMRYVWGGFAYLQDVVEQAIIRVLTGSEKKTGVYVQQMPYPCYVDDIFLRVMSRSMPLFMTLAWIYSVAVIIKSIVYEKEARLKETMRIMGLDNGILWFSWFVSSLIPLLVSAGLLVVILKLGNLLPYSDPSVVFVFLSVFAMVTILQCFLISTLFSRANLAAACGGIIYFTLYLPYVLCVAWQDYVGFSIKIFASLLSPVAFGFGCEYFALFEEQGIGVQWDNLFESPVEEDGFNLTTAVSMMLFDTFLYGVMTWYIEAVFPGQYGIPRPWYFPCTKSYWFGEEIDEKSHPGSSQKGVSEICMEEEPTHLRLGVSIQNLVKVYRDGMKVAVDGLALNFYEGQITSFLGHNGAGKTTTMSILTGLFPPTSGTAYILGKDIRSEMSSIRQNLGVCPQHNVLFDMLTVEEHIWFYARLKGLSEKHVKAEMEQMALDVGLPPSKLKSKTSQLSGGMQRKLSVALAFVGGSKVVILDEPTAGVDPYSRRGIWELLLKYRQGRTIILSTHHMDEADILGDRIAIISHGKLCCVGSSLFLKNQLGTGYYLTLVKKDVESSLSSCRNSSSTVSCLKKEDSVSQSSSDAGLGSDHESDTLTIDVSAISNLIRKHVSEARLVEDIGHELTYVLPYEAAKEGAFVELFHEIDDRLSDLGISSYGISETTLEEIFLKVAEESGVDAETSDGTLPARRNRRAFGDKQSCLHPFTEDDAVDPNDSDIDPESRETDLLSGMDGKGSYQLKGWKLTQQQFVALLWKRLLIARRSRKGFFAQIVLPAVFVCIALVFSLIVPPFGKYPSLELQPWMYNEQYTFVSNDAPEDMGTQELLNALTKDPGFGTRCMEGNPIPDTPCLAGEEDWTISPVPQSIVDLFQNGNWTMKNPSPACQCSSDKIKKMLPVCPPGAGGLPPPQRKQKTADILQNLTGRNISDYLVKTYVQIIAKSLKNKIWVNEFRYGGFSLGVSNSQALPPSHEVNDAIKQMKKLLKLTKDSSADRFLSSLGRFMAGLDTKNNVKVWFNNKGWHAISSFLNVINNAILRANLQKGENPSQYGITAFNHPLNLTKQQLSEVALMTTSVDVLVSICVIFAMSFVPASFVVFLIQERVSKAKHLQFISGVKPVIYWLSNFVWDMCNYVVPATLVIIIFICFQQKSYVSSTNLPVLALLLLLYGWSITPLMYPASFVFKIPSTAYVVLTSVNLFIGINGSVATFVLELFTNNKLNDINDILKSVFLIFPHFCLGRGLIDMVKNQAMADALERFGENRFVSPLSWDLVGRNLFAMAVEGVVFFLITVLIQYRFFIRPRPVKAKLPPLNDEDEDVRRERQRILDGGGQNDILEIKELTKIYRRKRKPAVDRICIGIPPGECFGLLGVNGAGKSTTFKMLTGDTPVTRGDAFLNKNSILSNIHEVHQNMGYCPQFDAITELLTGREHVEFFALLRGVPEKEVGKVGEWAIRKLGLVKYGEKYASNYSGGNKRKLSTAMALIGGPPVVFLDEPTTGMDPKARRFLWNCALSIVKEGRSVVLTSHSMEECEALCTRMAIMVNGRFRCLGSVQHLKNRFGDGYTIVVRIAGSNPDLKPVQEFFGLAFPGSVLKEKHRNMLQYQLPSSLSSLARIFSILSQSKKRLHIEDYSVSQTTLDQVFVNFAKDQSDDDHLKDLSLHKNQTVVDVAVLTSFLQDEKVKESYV

O=C1OC(c2ccc(O)c(S(=O)(=O)O)c2)(c2ccc(O)c(S(=O)(=O)O)c2)c2c(Br)c(Br)c(Br)c(Br)c21 [BSP, sulphobromophthaleine]
anion transport activities of ABC1 [1]: inhibit anion transport activities of ABC1 in a dose-dependent fashion | apo A-I-mediated efflux of tritiated cholesterol [2]: inhibited

CC(C)CCC[C@@H](C)[C@H]1CC[C@H]2[C@@H]3CC=C4C[C@@H](O)CC[C@]4(C)[C@H]3CC[C@]12C [cholesterol]
increase in ABC1 mRNA ([3]; 30 μg/ml free cholesterol, 48 hours, serum-free medium, normal fibroblasts): approximately 17 fold | cell-surface expression of ABC1 [4]: markedly increased

COc1ccc(C2CNC(=O)C2)cc1OC1CCCC1 (stereo not shown) [rolipram]
cholesterol efflux (percentage of total radiolabeled cholesterol appearing in the medium) [5]: 17%

ABC1 antisense Morpholino oligonucleotide: 5′-CATGTTGTTCATAGGGTGGGTAGCTC-3′; SEQ ID NO: 53 (all phosphorodiamidate morpholino (PMO))
reduction in cholesterol efflux compared with control (β-globin) antisense oligonucleotide [6]: 50%

apo A-I: apolipoprotein cholesterol acceptor (Biodesign International)
change in ABC1 expression ([7]; cholesterol-loaded TD1 cells): did not alter ABC1 expression | change in ABC1 expression ([7]; cholesterol-loaded TD2 cells): slightly increased ABC1 expression | change in ABC1 mRNA expression ([3]; cholesterol-loaded normal fibroblasts then 10 μg/ml apo A-I): marked decrease | cholesterol efflux (percentage of total radiolabeled cholesterol appearing in the medium) ([8]; apo A-I only (20 μg/ml), control cells without apo A-I 3%): 5% | cholesterol efflux counts ([8]; control cells (apo A-I only)): 1890 c.p.m. | efflux of [3H]-cholesterol [9]: promoted the efflux | efflux of [3H]-cholesterol [10]: little or no effect
